Counter-ions that a name gives are not always drawn. ± gives the standard deviation of the averaged measurements.
How the values were obtained:
Details in all cases: 72 h
Caco-2 [1] = assay: cell viability relative to DMSO; higher = less toxic
Calu-3 [2] = assay: as above
U2OS [3] = assay: as above
Vero E6 [4] = assay: as above
Caco-2 [5] = assay: relative viability EC50 (midpoint between 100% and the lowest measured viability); higher = less toxic
Calu-3 [6] = assay: as above
U2OS [7] = assay: as above
Vero E6 [8] = assay: as above
Caco-2 [9] = assay: drug sensitivity score (DSS) for viability; higher = more toxic; extreme values may be limits of the assay
Calu-3 [10] = assay: as above
U2OS [11] = assay: as above
Vero E6 [12] = assay: as above
HepG2 [13] = assay: cell viability relative to DMSO; higher = less toxic
HepG2 [14] = assay: drug sensitivity score (DSS) for viability; higher = more toxic; extreme values may be limits of the assay

| Compound | cell viability (Caco-2 [1]; 1 nM) | cell viability (Caco-2 [1]; 10 nM) | cell viability (Caco-2 [1]; 100 nM) | cell viability (Caco-2 [1]; 1000 nM) | cell viability (Caco-2 [1]; 10000 nM) | cell viability (Calu-3 [2]; 1 nM) | cell viability (Calu-3 [2]; 10 nM) | cell viability (Calu-3 [2]; 100 nM) | cell viability (Calu-3 [2]; 1000 nM) | cell viability (Calu-3 [2]; 10000 nM) | cell viability (U2OS [3]; 1 nM) | cell viability (U2OS [3]; 10 nM) | cell viability (U2OS [3]; 100 nM) | cell viability (U2OS [3]; 1000 nM) | cell viability (U2OS [3]; 10000 nM) | cell viability (Vero E6 [4]; 1 nM) | cell viability (Vero E6 [4]; 10 nM) | cell viability (Vero E6 [4]; 100 nM) | cell viability (Vero E6 [4]; 1000 nM) | cell viability (Vero E6 [4]; 10000 nM) | relative viability EC50 (Caco-2 [5]) | relative viability EC50 (Calu-3 [6]) | relative viability EC50 (U2OS [7]) | relative viability EC50 (Vero E6 [8]) | drug sensitivity score (Caco-2 [9]) | drug sensitivity score (Calu-3 [10]) | drug sensitivity score (U2OS [11]) | drug sensitivity score (Vero E6 [12]) | cell viability (HepG2 [13]; 1 nM) | cell viability (HepG2 [13]; 10 nM) | cell viability (HepG2 [13]; 100 nM) | cell viability (HepG2 [13]; 1000 nM) | cell viability (HepG2 [13]; 10000 nM) | drug sensitivity score (HepG2 [14]) |
| --- | --- | --- | --- | --- | --- | --- | --- | --- | --- | --- | --- | --- | --- | --- | --- | --- | --- | --- | --- | --- | --- | --- | --- | --- | --- | --- | --- | --- | --- | --- | --- | --- | --- | --- |
| O=C(O)c1nn(Cc2ccc(Cl)cc2Cl)c2ccccc12 [lonidamine] | 95.3% | 107% | 94.1% | 105% | 96.4% | 98.5% | 96.2% | 89.8% | 101% | 116% | 100% | 110% | 98% | 111% | 98% | 98.8% | 102% | 102% | 95.8% | 95.8% | > 10 µM | > 10 µM | > 10 µM | > 10 µM | 0 | 0 | 0 | 0 | – | – | – | – | – | – |
| CCS(=O)(=O)N(Cc1cccnc1)c1cccc(-c2ccc(C#N)cc2)c1 [CBiPES] | 100% | 99.2% | 98.1% | 92.6% | 76.4% | 101% | 96.5% | 97.1% | 96.8% | 112% | 104% | 97.2% | 103% | 98.1% | 94.6% | 103% | 96.7% | 101% | 96.4% | 85.9% | > 10 µM | > 10 µM | > 10 µM | > 10 µM | 1.6 | 0 | 0 | 0.5 | 98.5% | 96.3% | 93.7% | 105% | 56.7% | 1.9 |
| CNC[C@H](O)c1ccc(O)c(O)c1 [epinephrine] | 93.7% | 105% | 86.3% | 98.5% | 90% | 101% | 110% | 111% | 111% | 97.3% | 96.9% | 101% | 98.2% | 104% | 105% | 93.3% | 89.7% | 95.1% | 89.6% | 111% | > 10 µM | > 10 µM | > 10 µM | > 10 µM | 0 | 0 | 0 | 0 | 108% | 106% | 104% | 94.4% | 57.5% | 3.1 |
| COC(=O)C1=CCCN(C)C1 [arecoline] | – | – | – | – | – | – | – | – | – | – | – | – | – | – | – | – | – | – | – | – | – | – | – | – | – | 0.6 | 0 | – | – | – | – | – | – | 0 |
| Cc1cc(Nc2cc(C)c(C#N)c(N[C@@H](C)CCCC(C)(C)O)n2)n[nH]1 [TC-A-2317] | 103% | 102% | 94% | 77.6% | 25.3% | 98% | 89.4% | 84.7% | 77.2% | 40.8% | 106% | 98.2% | 96.9% | 68.8% | 7.2% | 105% | 104% | 96.4% | 75.7% | 22% | 1.47 µM | 0.799 µM | 1.33 µM | 1.4 µM | 7.2 | 6.7 | 9.4 | 7.8 | 110% | 103% | 93.2% | 62.8% | 54.3% | 7.5 |
| CNC1CC(N)C(O)C(OC2OC(CO)C(O)C3OC4(OC(C(N)CO)C(O)C(O)C4O)OC23)C1O (stereo unspecified) [Hygromycin B] | 97.2% | 105% | 107% | 108% | 95.9% | 95.7% | 93.5% | 92.9% | 97.5% | 89.8% | 104% | 97.8% | 99% | 103% | 93.9% | 95.9% | 93.4% | 95.4% | 91.5% | 104% | > 10 µM | > 10 µM | > 10 µM | > 10 µM | 0 | 0 | 0 | 0 | – | – | – | – | – | – |
| CN1c2cc3c(cc2N=C(c2ccc(C(=O)O)cc2)c2ccccc21)C(C)(C)CCC3(C)C [LE-135] | 88.8% | 100% | 101% | 89.7% | 60.1% | 108% | 108% | 91.2% | 102% | 98.5% | 101% | 106% | 100% | 97.8% | 57.2% | 99% | 102% | 98.2% | 87.3% | 78.7% | – | > 10 µM | – | > 10 µM | 3.6 | 0 | 2.5 | 1.7 | 85.1% | 104% | 86.8% | 87.6% | 74% | 2.4 |
| O=C1c2ccccc2-c2n[nH]c3cccc1c23 [pyrazolanthrone] | 111% | 92.3% | 99.4% | 102% | 97.9% | 94.9% | 95.7% | 92.4% | 100% | 98.6% | – | – | – | – | – | 94.7% | 102% | 99.8% | 106% | 105% | > 10 µM | > 10 µM | – | > 10 µM | 0 | 0 | – | 0 | 101% | 80.2% | 96.8% | 82.4% | 71.5% | 3.3 |
| CN1[C@@H]2C[C@@H](OC(=O)[C@H](CO)c3ccccc3)C[C@H]1[C@@H]1O[C@@H]12 [SCOPOLAMINE HYDROBROMIDE] | – | – | – | – | – | 96.6% | 99.1% | 91.6% | 101% | 105% | 98% | 98.7% | 99.3% | 95.9% | 96.4% | 94.2% | 99% | 94.4% | 97.2% | 115% | – | > 10 µM | > 10 µM | > 10 µM | – | 0 | 0 | 0 | – | – | – | – | – | – |
| CCC(CC)C(c1ccc(Nc2nc3ccccc3s2)cc1)n1cncn1 (stereo unspecified) [talarozole] | 94.1% | 104% | 96% | 103% | 67.8% | 100% | 104% | 103% | 109% | 104% | 104% | 104% | 101% | 102% | 93.3% | 108% | 101% | 99.3% | 99.1% | 105% | – | > 10 µM | > 10 µM | > 10 µM | 1.2 | 0 | 0 | 0 | 92.3% | 92.5% | 104% | 102% | 63.7% | 1.6 |
| CCC(C)(C)c1ccc(CC(C)CN2C[C@@H](C)O[C@@H](C)C2)cc1 (stereo partly specified) [amorolfine] | 86% | 114% | 91.8% | 84.8% | 76% | 93.8% | 109% | 92.9% | 100% | 94.7% | – | – | – | – | – | – | – | – | – | – | > 10 µM | > 10 µM | – | – | 2.5 | 0 | – | – | – | – | – | – | – | – |
| CC1COc2c(N3CCN(C)CC3)c(F)cc3c(=O)c(C(=O)O)cn1c23 (stereo unspecified) [ofloxacin] | – | – | – | – | – | – | – | – | – | – | – | – | – | – | – | – | – | – | – | – | – | – | – | – | – | 0 | 0 | 0 | – | – | – | – | – | 0.85 ± 1.2 |
| OCCCCO [1,4-butanediol] | 98.6% | 112% | 119% | 107% | 102% | 89.2% | 98.4% | 89.4% | 94% | 93.7% | 101% | 108% | 96.8% | 111% | 97.8% | 102% | 102% | 100% | 104% | 93.1% | > 10 µM | > 10 µM | > 10 µM | > 10 µM | 0 | 0 | 0 | 0 | 90.8% | 97.9% | 95.7% | 105% | 74.4% | 0.7 |
| c1ccc(-c2n[nH]c3c2oc2ccccc23)cc1 | 107% | 99.4% | 104% | 96.8% | 89.7% | 89.6% | 103% | 102% | 105% | 110% | 103% | 102% | 98.5% | 99.6% | 93.8% | 91% | 96.4% | 91.7% | 90.1% | 102% | > 10 µM | > 10 µM | > 10 µM | > 10 µM | 0 | 0 | 0 | 0 | 104% | 106% | 90.1% | 84% | 74.5% | 2.9 |
| O=C1NC(=O)c2c1c1c3ccccc3n3c1c1c2c2ccccc2n1C1CCC3O1 | 101% | 96.2% | 92.9% | 76.9% | 80.7% | 104% | 92.6% | 96.4% | 92% | 95.9% | 99.8% | 99.3% | 91.1% | 86.8% | 80% | 98.5% | 94.7% | 95% | 71.7% | 75% | > 10 µM | > 10 µM | > 10 µM | – | 4 | 0 | 1.9 | 5.5 | 100% | 99.9% | 98.8% | 57.8% | 56.5% | 7.8 |
| COC(=O)N[C@H](C(=O)N[C@@H](Cc1ccccc1)[C@@H](O)CN(Cc1ccc(-c2ccccn2)cc1)NC(=O)[C@@H](NC(=O)OC)C(C)(C)C)C(C)(C)C [atazanavir] | 90.5% | 112% | 92.9% | 84.8% | 80.1% | 99.3% | 99.7% | 91.4% | 91% | 97.1% | 111% | 97.1% | 102% | 94% | 99.1% | 96.3% | 102% | 90.2% | 99.6% | 112% | > 10 µM | > 10 µM | > 10 µM | > 10 µM | 2.3 | 0 | 0 | 0 | – | – | – | – | – | – |

Reference: the supplement of paper PMC13380429
